Measured values: paper PMC9930429, “Wogonin attenuates the pathogenicity of Streptococcus pneumoniae by double‐target inhibition of Pneumolysin and Sortase A” (Journal of Cellular and Molecular Medicine, 2023)
pIC50: −log10 of the molar value.

Molecular target: Pneumolysin (PLY) (Streptococcus pneumoniae, UniProt Q04IN8)
Experiment: biochemical

Sequence of Pneumolysin (PLY) (Q04IN8 2-471 limits assumed): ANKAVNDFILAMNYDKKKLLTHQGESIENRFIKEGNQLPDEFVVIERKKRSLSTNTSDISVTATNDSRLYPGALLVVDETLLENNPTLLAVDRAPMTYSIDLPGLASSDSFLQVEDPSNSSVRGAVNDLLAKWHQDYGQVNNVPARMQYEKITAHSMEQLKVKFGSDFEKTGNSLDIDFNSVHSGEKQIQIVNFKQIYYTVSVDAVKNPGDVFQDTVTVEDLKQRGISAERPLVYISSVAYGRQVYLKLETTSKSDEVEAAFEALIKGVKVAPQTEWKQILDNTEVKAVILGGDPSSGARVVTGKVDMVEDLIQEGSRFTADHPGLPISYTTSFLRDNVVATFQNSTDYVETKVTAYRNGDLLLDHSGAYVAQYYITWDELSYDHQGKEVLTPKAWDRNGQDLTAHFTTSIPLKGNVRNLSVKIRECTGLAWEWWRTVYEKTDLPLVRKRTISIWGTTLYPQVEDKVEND

With `COc1c(O)cc(O)c2c(=O)cc(-c3ccccc3)oc12` [wogonin] the pIC50 was 3.73.
